Reference: the NIST ThermoML archive (doi:10.1021/je049721u)
Numbers after ± are expanded uncertainties.

Assay: mn = molality of the nth substance listed, in mol/kg
Conditions: 101.3 kPa, Liquid; for speed of sound: Pulse-echo method

Structure (SMILES): [Cu+2].[O-][Cl+3]([O-])([O-])[O-].[O-][Cl+3]([O-])([O-])[O-] [copper perchlorate] + CN(C)C=O
- mass density (283.15 K, m1 = 0.0362): 965.762 ± 0.58 kg/m3
- mass density (283.15 K, m1 = 0.04897): 968.496 ± 0.58 kg/m3
- mass density (283.15 K, m1 = 0.0604): 970.938 ± 0.58 kg/m3
- mass density (283.15 K, m1 = 0.07815): 974.714 ± 0.58 kg/m3
- mass density (283.15 K, m1 = 0.106): 980.752 ± 0.58 kg/m3
- mass density (283.15 K, m1 = 0.139): 987.892 ± 0.58 kg/m3
- mass density (283.15 K, m1 = 0.1737): 995.495 ± 0.58 kg/m3
- mass density (283.15 K, m1 = 0.2084): 1003.16 ± 0.58 kg/m3
- mass density (283.15 K, m1 = 0.2431): 1010.94 ± 0.59 kg/m3
- mass density (283.15 K, m1 = 0.2746): 1018.01 ± 0.6 kg/m3
- mass density (283.15 K, m1 = 0.3065): 1025.38 ± 0.61 kg/m3
- mass density (283.15 K, m1 = 0.3377): 1032.62 ± 0.61 kg/m3
- mass density (293.15 K, m1 = 0.0362): 956.275 ± 0.58 kg/m3
- mass density (293.15 K, m1 = 0.04897): 959.009 ± 0.58 kg/m3
- mass density (293.15 K, m1 = 0.0604): 961.462 ± 0.58 kg/m3
- mass density (293.15 K, m1 = 0.07815): 965.248 ± 0.58 kg/m3
- mass density (293.15 K, m1 = 0.106): 971.295 ± 0.58 kg/m3
- mass density (293.15 K, m1 = 0.139): 978.445 ± 0.58 kg/m3
- mass density (293.15 K, m1 = 0.1737): 986.058 ± 0.58 kg/m3
- mass density (293.15 K, m1 = 0.2084): 993.739 ± 0.58 kg/m3
- mass density (293.15 K, m1 = 0.2431): 1001.53 ± 0.58 kg/m3
- mass density (293.15 K, m1 = 0.2746): 1008.7 ± 0.59 kg/m3
- mass density (293.15 K, m1 = 0.3065): 1015.99 ± 0.6 kg/m3
- mass density (293.15 K, m1 = 0.3377): 1023.24 ± 0.6 kg/m3
- speed of sound (298.15 K, m1 = 0.0362): 1460 ± 1.4 m/s
- speed of sound (298.15 K, m1 = 0.0604): 1461.7 ± 1.4 m/s
- speed of sound (298.15 K, m1 = 0.07815): 1463.2 ± 1.5 m/s
- speed of sound (298.15 K, m1 = 0.106): 1465.3 ± 1.5 m/s
- speed of sound (298.15 K, m1 = 0.139): 1467.8 ± 1.5 m/s
- speed of sound (298.15 K, m1 = 0.1737): 1470.3 ± 1.5 m/s
- speed of sound (298.15 K, m1 = 0.2084): 1473.2 ± 1.5 m/s
- speed of sound (298.15 K, m1 = 0.2431): 1475.7 ± 1.5 m/s
- speed of sound (298.15 K, m1 = 0.2746): 1478.3 ± 1.5 m/s
- speed of sound (298.15 K, m1 = 0.3065): 1480.8 ± 1.5 m/s
- speed of sound (298.15 K, m1 = 0.3377): 1483.8 ± 1.5 m/s
- mass density (298.15 K, m1 = 0.0362): 951.52 ± 0.59 kg/m3
- mass density (298.15 K, m1 = 0.04897): 954.258 ± 0.59 kg/m3
- mass density (298.15 K, m1 = 0.0604): 956.715 ± 0.58 kg/m3
- mass density (298.15 K, m1 = 0.07815): 960.507 ± 0.58 kg/m3
- mass density (298.15 K, m1 = 0.106): 966.549 ± 0.58 kg/m3
- mass density (298.15 K, m1 = 0.139): 973.718 ± 0.58 kg/m3
- mass density (298.15 K, m1 = 0.1737): 981.338 ± 0.58 kg/m3
- mass density (298.15 K, m1 = 0.2084): 989.024 ± 0.58 kg/m3
- mass density (298.15 K, m1 = 0.2431): 996.825 ± 0.58 kg/m3
- mass density (298.15 K, m1 = 0.2746): 1003.95 ± 0.58 kg/m3
- mass density (298.15 K, m1 = 0.3065): 1011.3 ± 0.59 kg/m3
- mass density (298.15 K, m1 = 0.3377): 1018.54 ± 0.6 kg/m3
- mass density (303.15 K, m1 = 0.0362): 946.762 ± 0.59 kg/m3
- mass density (303.15 K, m1 = 0.04897): 949.505 ± 0.59 kg/m3
- mass density (303.15 K, m1 = 0.0604): 951.971 ± 0.59 kg/m3
- mass density (303.15 K, m1 = 0.07815): 955.758 ± 0.59 kg/m3
- mass density (303.15 K, m1 = 0.106): 961.812 ± 0.58 kg/m3
- mass density (303.15 K, m1 = 0.139): 968.984 ± 0.58 kg/m3
- mass density (303.15 K, m1 = 0.1737): 976.613 ± 0.58 kg/m3
- mass density (303.15 K, m1 = 0.2084): 984.309 ± 0.58 kg/m3
- mass density (303.15 K, m1 = 0.2431): 992.116 ± 0.58 kg/m3
- mass density (303.15 K, m1 = 0.2746): 999.2 ± 0.58 kg/m3
- mass density (303.15 K, m1 = 0.3065): 1006.6 ± 0.59 kg/m3
- mass density (303.15 K, m1 = 0.3377): 1013.85 ± 0.59 kg/m3
- mass density (313.15 K, m1 = 0.0362): 937.212 ± 0.59 kg/m3
- mass density (313.15 K, m1 = 0.04897): 939.972 ± 0.59 kg/m3
- mass density (313.15 K, m1 = 0.0604): 942.44 ± 0.59 kg/m3
- mass density (313.15 K, m1 = 0.07815): 946.236 ± 0.59 kg/m3
- mass density (313.15 K, m1 = 0.106): 952.315 ± 0.59 kg/m3
- mass density (313.15 K, m1 = 0.139): 959.5 ± 0.59 kg/m3
- mass density (313.15 K, m1 = 0.1737): 967.148 ± 0.58 kg/m3
- mass density (313.15 K, m1 = 0.2084): 974.859 ± 0.58 kg/m3
- mass density (313.15 K, m1 = 0.2431): 982.686 ± 0.58 kg/m3
- mass density (313.15 K, m1 = 0.2746): 989.83 ± 0.58 kg/m3
- mass density (313.15 K, m1 = 0.3065): 997.202 ± 0.58 kg/m3
- mass density (313.15 K, m1 = 0.3377): 1004.46 ± 0.58 kg/m3
- mass density (323.15 K, m1 = 0.0362): 927.62 ± 0.6 kg/m3
- mass density (323.15 K, m1 = 0.04897): 930.338 ± 0.6 kg/m3
- mass density (323.15 K, m1 = 0.0604): 932.866 ± 0.6 kg/m3
- mass density (323.15 K, m1 = 0.07815): 936.666 ± 0.6 kg/m3
- mass density (323.15 K, m1 = 0.106): 942.78 ± 0.59 kg/m3
- mass density (323.15 K, m1 = 0.139): 949.979 ± 0.59 kg/m3
- mass density (323.15 K, m1 = 0.1737): 957.653 ± 0.59 kg/m3
- mass density (323.15 K, m1 = 0.2084): 965.385 ± 0.59 kg/m3
- mass density (323.15 K, m1 = 0.2431): 973.233 ± 0.58 kg/m3
- mass density (323.15 K, m1 = 0.2746): 980.454 ± 0.58 kg/m3
- mass density (323.15 K, m1 = 0.3065): 987.786 ± 0.58 kg/m3
- mass density (323.15 K, m1 = 0.3377): 995.056 ± 0.58 kg/m3
- mass density (333.15 K, m1 = 0.0362): 917.988 ± 0.61 kg/m3
- mass density (333.15 K, m1 = 0.04897): 920.756 ± 0.61 kg/m3
- mass density (333.15 K, m1 = 0.0604): 923.242 ± 0.6 kg/m3
- mass density (333.15 K, m1 = 0.07815): 927.06 ± 0.6 kg/m3
- mass density (333.15 K, m1 = 0.106): 933.198 ± 0.6 kg/m3
- mass density (333.15 K, m1 = 0.139): 940.416 ± 0.6 kg/m3
- mass density (333.15 K, m1 = 0.1737): 948.12 ± 0.59 kg/m3
- mass density (333.15 K, m1 = 0.2084): 955.869 ± 0.59 kg/m3
- mass density (333.15 K, m1 = 0.2431): 963.75 ± 0.59 kg/m3
- mass density (333.15 K, m1 = 0.2746): 970.858 ± 0.59 kg/m3
- mass density (333.15 K, m1 = 0.3065): 978.345 ± 0.58 kg/m3
- mass density (333.15 K, m1 = 0.3377): 985.638 ± 0.58 kg/m3
